# Assay results reported in patent US10869476B2 (priority 2015, dated 2020).
# Like-named read-outs stand apart in the source and are kept apart here.
# What was measured:
# Assay type in all cases: in vivo
# Fusarium = details: wheat, 100 EC, 67 days after application
# Gibberella zeae = details: winter wheat kernels after harvest, Germany 2015; 75 g a.i./ha, 100 EC formulation plus adjuvant, BBCH 65; HPLC-MS/MS; Untreated Control 497
# Fusarium head blight = details: wheat field trials France and Germany 2016; for Fusarium head blight in % sev. after 11 to 20 days after application: UTC 13; for Fusarium head blight in % sev. after 21 to 46 days after application: UTC 35
structure (smiles),measurement,setting,value
"CON(C(=O)c1cn(C)nc1C(F)F)C(C)Cc1c(Cl)cc(Cl)cc1Cl (stereo not shown) [Pydiflumetofen, 3-(Difluoromethyl)-N-methoxy-1-methyl-N-[1-(2,4,6-trichlorophenyl)-2-propanyl]-1H-pyrazole-4-carboxamide]",3- Acetyl Deoxynivalenol,"Fusarium; France, second trial (UTC 189), 45 g a.i./ha",63 ppb
same,3- Acetyl Deoxynivalenol,"Fusarium; France, second trial (UTC 189), 60 g a.i./ha",<50 ppb
same,Nivalenol,"Fusarium; Germany, first trial (UTC 126), 45 g a.i./ha",0 ppb
same,Nivalenol,"Fusarium; Germany, first trial (UTC 126), 60 g a.i./ha",0 ppb
same,3- Acetyl Deoxynivalenol,"Fusarium; Germany, second trial (UTC 56), 45 g a.i./ha",0 ppb
same,3- Acetyl Deoxynivalenol,"Fusarium; Germany, second trial (UTC 56), 60 g a.i./ha",0 ppb
same,Nivalenol,"Fusarium; Germany, second trial (UTC 159), 45 g a.i./ha",0 ppb
same,Nivalenol,"Fusarium; Germany, second trial (UTC 159), 60 g a.i./ha",0 ppb
same,Deoxynivalenol Content,Gibberella zeae,44 ppm
same,Fusarium head blight in % sev. after 11 to 20 days after application,Fusarium head blight; 45 g a.i./ha,42 % sev.
same,Fusarium head blight in % sev. after 21 to 46 days after application,Fusarium head blight; 45 g a.i./ha,51 % sev.
same,Fusarium head blight in % sev. after 11 to 20 days after application,Fusarium head blight; 60 g a.i./ha,52 % sev.
same,Fusarium head blight in % sev. after 21 to 46 days after application,Fusarium head blight; 60 g a.i./ha,64 % sev.
